Experiments:
[1] = tested on: A375 tumors; test: In vivo efficacy, A375 xenograft tumor volume (Example 8); design: species or system human A375 melanoma xenograft in female BALB/c nude mice; conditions: oral, FIG. 22
Procedure: FIG. 22 is a line graph showing in vivo efficacy of encorafenib, Compound 8, Compound 26, and Compound 38 in the treatment of female BALB/c nude mice bearing A375 tumors. Mice were treated with vehicle (10 μL/g, p.o., BID), encorafenib (35 mg/kg, p.o., QD), Compound 8 (10 mg/kg, p.o., BID), Compound 26 (10 mg/kg, p.o., BID), or Compound 38 (10 mg/kg, p.o., BID) by oral gavage (p.o.). Data points represent group mean change in tumor volume. Error bars represent standard error of the mean (SEM). The x-axis is the time measured in days and the y-axis is A375 tumor volume measured in mm^3. The experiment was conducted as described in Example 8.

[2] = target: T1, human bile salt export pump (BSEP) efflux transporter (Homo sapiens, UniProt O95342); test: BSEP Vesicular Transport, one concentration inhibition assay; format: biochemical; conditions: human BSEP (HEK293) vesicles, taurocholate 0.2 μM, 4 mM Mg-ATP, 2 replicates
T1 construct: purchased SOLVO Biotechnology Charles River Laboratories, Szeged, Hungary; host or cells: HEK293 (inside out membrane vesicles)
Procedure: The vesicular transport (VT) assays were performed using inside out membrane vesicles derived from HEK293 cells expressing the specified human bile salt export pump (BSEP) efflux transporter. The membrane vesicles were procured from SOLVO Biotechnology Charles River Laboratories, Szeged, Hungary.
The principle of the assay relies on measuring the accumulation of substrate into inside out vesicles containing the efflux transporter. By utilizing inside out vesicles, the ATP-dependent transport of substrate is directed into the vesicular lumen, where low permeability compounds are then essentially trapped.
For the 1 concentration inhibition assay, each compound was tested in the presence of ATP (active transport) in 2 replicates.
The solvent control (DMSO) was tested in the presence of ATP (active transport) and in the presence of AMP (background) in 8 replicates. […]
The samples were then be transferred to a filter plate and washed with 200 μL cold washing mix5-times to remove any free compounds or taurocholate probe substrate. The amount of taurocholate probe substrate inside the filtered vesicles were determined by liquid scintillation counting. […] The amount of taurocholate probe substrate inside the filtered vesicles were determined by liquid scintillation counting.

[3] = Human dose projections for Compound 26 (allometry, PBPK model), Example 15
Text: The first-in-human dose projections for Compound 26 were made using prediction models. These models utilized experimentally determined physicochemical and ADME parameters relevant to Compound 26. The in vivo plasma clearance (Cl) and volume of distribution (Vdss) values obtained across different preclinical species (mouse, rat, dog and monkey) were scaled to predict human values using allometry. […] In addition, the human efficacious AUC (area under the concentration curve) was derived from a PKPD efficacy study in a tumor bearing mouse model. […] With these inputs a pharmacokinetic model (PBPK) was developed to project first in human BID dose. The oral bioavailability data for Compound 26 from preclinical species, mouse, rat, dog and monkey was simulated in the PBPK model for that species, to build confidence in the human PBPK model.

T1 sequence (O95342 whole entry): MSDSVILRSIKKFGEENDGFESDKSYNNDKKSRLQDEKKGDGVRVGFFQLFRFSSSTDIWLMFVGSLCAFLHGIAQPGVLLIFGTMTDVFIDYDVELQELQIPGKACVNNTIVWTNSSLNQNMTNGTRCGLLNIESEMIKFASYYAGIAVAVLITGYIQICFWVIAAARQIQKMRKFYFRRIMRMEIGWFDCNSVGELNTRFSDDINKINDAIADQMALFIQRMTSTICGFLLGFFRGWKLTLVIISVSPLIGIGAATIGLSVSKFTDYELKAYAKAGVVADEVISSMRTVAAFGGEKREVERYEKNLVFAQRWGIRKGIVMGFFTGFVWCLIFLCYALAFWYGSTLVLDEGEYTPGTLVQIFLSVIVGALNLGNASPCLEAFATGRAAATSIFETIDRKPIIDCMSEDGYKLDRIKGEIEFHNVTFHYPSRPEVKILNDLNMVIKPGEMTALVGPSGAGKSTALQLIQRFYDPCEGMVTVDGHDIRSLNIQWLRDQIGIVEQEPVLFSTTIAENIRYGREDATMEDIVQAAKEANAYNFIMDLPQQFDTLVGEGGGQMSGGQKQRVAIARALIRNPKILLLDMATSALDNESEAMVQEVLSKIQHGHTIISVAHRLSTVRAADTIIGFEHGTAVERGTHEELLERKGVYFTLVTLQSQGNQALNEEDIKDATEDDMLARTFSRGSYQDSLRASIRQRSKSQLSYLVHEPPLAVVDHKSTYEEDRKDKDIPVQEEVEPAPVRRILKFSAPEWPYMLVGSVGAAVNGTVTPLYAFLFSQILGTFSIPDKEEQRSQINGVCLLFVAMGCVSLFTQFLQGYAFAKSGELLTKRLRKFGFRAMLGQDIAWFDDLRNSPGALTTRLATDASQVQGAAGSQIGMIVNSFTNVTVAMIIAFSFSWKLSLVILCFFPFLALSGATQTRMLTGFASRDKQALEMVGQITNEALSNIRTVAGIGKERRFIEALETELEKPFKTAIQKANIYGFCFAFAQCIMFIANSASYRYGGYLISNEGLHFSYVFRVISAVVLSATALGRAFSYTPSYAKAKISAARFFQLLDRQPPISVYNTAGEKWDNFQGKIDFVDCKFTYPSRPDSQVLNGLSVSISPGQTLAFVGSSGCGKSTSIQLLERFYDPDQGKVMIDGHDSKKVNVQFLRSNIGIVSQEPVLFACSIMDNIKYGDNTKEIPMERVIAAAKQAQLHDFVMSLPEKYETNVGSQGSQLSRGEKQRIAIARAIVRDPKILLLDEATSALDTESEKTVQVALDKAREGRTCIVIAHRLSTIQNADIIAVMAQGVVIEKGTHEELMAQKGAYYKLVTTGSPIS

CCN(C)S(=O)(=O)Nc1ccc(F)c(Oc2ccc3ncn(C4CC5(CCN(C6CCC(c7cc8c(cc7F)c(N7CCC(=O)NC7=O)nn8C)CC6)CC5)C4)c(=O)c3c2)c1C#N (single isomer, unassigned) [Compound 8, 6-[2-cyano-3-[[ethyl(methyl)sulfamoyl]amino]-6-fluoro-phenoxy]-3-[7-[4-[3-(2,4-dioxohexahydropyrimidin-1-yl)-5-fluoro-1-methyl-indazol-6-yl]cyclohexyl]-7-azaspiro[3.5]nonan-2-yl]-4-oxo-quinazoline]
tumor regressions in the xenograft model ([1]; 10 mg/kg BID, A375 xenografts): profound tumor regressions
antitumor response compared with comparators dabrafenib or encorafenib ([1]; A375 human melanoma xenografts): more robust antitumor response

CCN(C)S(=O)(=O)Nc1ccc(F)c(Oc2ccc3ncn([C@H]4COC5(CCN(C6CC(c7cc8c(cc7F)c(N7CCC(=O)NC7=O)nn8C)C6)CC5)C4)c(=O)c3c2)c1C#N (single isomer, unassigned) [Compound 70]
BSEP Inhibition SD Inhibition % [2]: 80%

CCN(C)S(=O)(=O)Nc1ccc(F)c(Oc2ccc3ncn([C@H]4COC5(CCN(C6CC7(C6)CN(c6cc8c(cc6F)c(N6CCC(=O)NC6=O)nn8C)C7)CC5)C4)c(=O)c3c2)c1C#N [Compound 26, (3R)-3-[6-[2-cyano-3-[[ethyl(methyl)sulfamoyl]amino]-6-fluoro-phenoxy]-4-oxo-quinazolin-3-yl]-8-[2-[3-(2,4-dioxohexahydropyrimidin-1-yl)-5-fluoro-1-methyl-indazol-6-yl]-2-azaspiro[3.3]heptan-6-yl]-1-oxa-8-azaspiro[4.5]decane]
Human Vdss ([3]; Table 86): 0.50 L/kg
Human CL (PPB corrected plasma clearance) ([3]; allometry from mouse, rat, dog and monkey): 0.88 mL/min/kg
